Legend:
hOx2R = hOx2R (Homo sapiens (Human), UniProt O43614); assay: Calcium accumulation in cells (FLIPR), hOx2R; type: cell-based; settings: for Ki: inhibition of orexin A induced calcium accumulation, Cheng and Prusoff correction; for inhibition at 10 µM: measured at a concentration of 10 μM of compound
Protocol: (§1) Calcium Accumulation in Cells (FLIPR):
(§2) Cells expressing human orexin 1 or human orexin 2 receptors, were seeded at 8,000 cells/well in 384 well black-walled clear bottom, poly-D-lysine coated plates. After 24 h, the medium was removed and cells were washed once with phosphate buffered saline and serum-deprived overnight in assay buffer (130 mM NaCl, 5.4 mM KCl, 1.8 mM CaCl2, 0.8 mM MgSO4, 0.9 mM NaH2PO4, 25 mM glucose, 20 mM HEPES, pH 7.4) containing bovine serum albumin (1% w/v).
(§3) On the day of the experiment, the cells seeded in black plates were treated with assay buffer containing the Ca^2+ sensitive fluorescent dye Fluo-4-AM (2 μM), and probenecid (0.1 mM). After 1 h plates were washed twice with, and resuspended in, assay buffer containing probenecid (0.1 mM) using a multi plate washer. […] Fluorescence measurements were then continued every 1 S for 120 S followed by every 4 S for 240 S.
(§4) The measurements were typically made in two sequences:
(§5) Compounds of formula I were tested usually in a concentration range from 10^−9 M to 10^−5 M.
(§6) In the second round, performed one hour later (to allow for equilibration), Orexin A was tested either in the absence (calibration curves, Orexin A agonist controls) or in the presence of compounds of formula I to determine antagonism.

hOx1R = hOx1R (Homo sapiens (Human), UniProt O43613); assay: Calcium accumulation in cells (FLIPR), hOx1R; type: cell-based; settings: for Ki: inhibition of orexin A induced calcium accumulation, Cheng and Prusoff correction; for inhibition at 10 µM: measured at a concentration of 10 μM of compound
Sequence of hOx1R (O43613 whole entry): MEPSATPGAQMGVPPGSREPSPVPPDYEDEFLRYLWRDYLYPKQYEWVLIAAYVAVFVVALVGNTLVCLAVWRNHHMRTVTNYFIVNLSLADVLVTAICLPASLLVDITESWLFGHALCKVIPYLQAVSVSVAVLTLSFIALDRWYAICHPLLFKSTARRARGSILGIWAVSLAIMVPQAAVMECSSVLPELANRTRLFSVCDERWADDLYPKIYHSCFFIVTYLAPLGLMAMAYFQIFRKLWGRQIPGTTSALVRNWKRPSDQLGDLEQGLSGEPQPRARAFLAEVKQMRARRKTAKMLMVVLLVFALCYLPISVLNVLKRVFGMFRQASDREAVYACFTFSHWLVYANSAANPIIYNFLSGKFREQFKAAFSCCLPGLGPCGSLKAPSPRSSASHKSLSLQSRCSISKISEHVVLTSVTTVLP
Protocol: as §1, §2, §3, §4, §5, §6

Sequence of hOx2R (O43614 whole entry): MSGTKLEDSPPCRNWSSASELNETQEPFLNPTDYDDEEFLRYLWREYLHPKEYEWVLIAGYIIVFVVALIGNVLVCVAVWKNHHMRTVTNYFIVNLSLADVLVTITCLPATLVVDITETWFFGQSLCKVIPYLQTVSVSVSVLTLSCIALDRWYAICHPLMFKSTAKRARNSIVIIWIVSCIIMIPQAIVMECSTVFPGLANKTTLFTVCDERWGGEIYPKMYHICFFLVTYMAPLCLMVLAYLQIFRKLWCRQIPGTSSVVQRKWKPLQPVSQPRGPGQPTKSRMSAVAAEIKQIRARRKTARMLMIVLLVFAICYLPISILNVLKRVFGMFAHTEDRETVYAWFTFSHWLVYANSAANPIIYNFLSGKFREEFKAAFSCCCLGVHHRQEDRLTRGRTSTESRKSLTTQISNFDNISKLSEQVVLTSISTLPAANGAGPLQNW

Q: How did the Ki (hOx2R) turn out when `Cc1cc(C)cc(CN2CCCC3(CCN(c4cnc5ccccc5n4)CC3)C2=O)c1` [Example 16, 2-(3,5-dimethylbenzyl)-9-(quinoxalin-2-yl)-2,9-diazaspiro[5.5]undecan-1-one] was run?
A: 113 nM

Q: And the Ki (hOx1R)?
A: 1190 nM

Q: `Cc1cccc(CN2CCCC3(CCN(c4cnc5ccccc5n4)CC3)C2=O)c1C` [Example 17, 2-(2,3-dimethylbenzyl)-9-(quinoxalin-2-yl)-2,9-diazaspiro[5.5]undecan-1-one] was tested. Which Ki (hOx2R) did it give?
A: 247 nM

Q: And the Ki (hOx1R)?
A: 1720 nM

Q: For `COc1cccc(CN2CCCC3(CCN(c4cnc5ccccc5n4)CC3)C2=O)c1OC` [Example 18, 2-(2,3-dimethoxybenzyl)-9-(quinoxalin-2-yl)-2,9-diazaspiro[5.5]undecan-1-one], which Ki (hOx2R) is on record?
A: 782 nM

Q: And the inhibition at 10 µM (hOx1R)?
A: 3%

Q: How did the Ki (hOx2R) turn out when `Cc1ccccc1CN1CCCC2(CCN(c3cnc4ccccc4n3)CC2)C1=O` [Example 19, 2-(2-methylbenzyl)-9-(quinoxalin-2-yl)-2,9-diazaspiro[5.5]undecan-1-one] was run?
A: 495 nM

Q: And the inhibition at 10 µM (hOx1R)?
A: 12%

Q: With `Cc1ccc(C)c(CN2CCCC3(CCN(c4cnc5ccccc5n4)CC3)C2=O)c1` [Example 20, 2-(2,5-dimethylbenzyl)-9-(quinoxalin-2-yl)-2,9-diazaspiro[5.5]undecan-1-one] as the molecule, how does the Ki (hOx2R) read?
A: 205 nM

Q: And the Ki (hOx1R)?
A: 945 nM

Q: For `Cn1ccc2c(CN3CCCC4(CCN(c5cnc6ccccc6n5)CC4)C3=O)cccc21` [Example 26, 2-((1-methyl-1H-indol-4-yl)methyl)-9-(quinoxalin-2-yl)-2,9-diazaspiro[5.5]undecan-1-one], which Ki (hOx2R) is on record?
A: 168 nM

Q: What about the Ki (hOx1R) of the same molecule?
A: 614 nM

Q: How did the Ki (hOx2R) turn out when `O=C1N(Cc2cccc(Cl)c2)CCCC12CCN(c1nc3ccccc3[nH]1)CC2` [Example 28, 9-(1H-benzo[d]imidazol-2-yl)-2-(3-chlorobenzyl)-2,9-diazaspiro[5.5]undecan-1-one] was run?
A: 160 nM

Q: What about the inhibition at 10 µM (hOx1R) of the same molecule?
A: 33%

Q: For `O=C1N(Cc2cccc(Cl)c2)CCCC12CCN(c1nccc(-c3ccccc3)n1)CC2` [Example 29, 2-(3-chlorobenzyl)-9-(4-phenylpyrimidin-2-yl)-2,9-diazaspiro[5.5]undecan-1-one], which Ki (hOx2R) is on record?
A: 614 nM

Q: What about the Ki (hOx1R) of the same molecule?
A: 1700 nM

Q: What does the source list for `Cn1c(CN2CCCC3(CCN(c4cnc5ccccc5n4)CC3)C2=O)nc2ccccc21` [Example 30, 2-((1-methyl-1H-benzo[d]imidazol-2-yl)methyl)-9-(quinoxalin-2-yl)-2,9-diazaspiro[5.5]undecan-1-one]?
A: inhibition at 10 µM (hOx2R): 33%; inhibition at 10 µM (hOx1R): 17%

Q: For `COc1ccc(-c2nnc(CN3CCCC4(CCN(c5cnc6ccccc6n5)CC4)C3=O)o2)cc1` [Example 31, 2-((5-(4-methoxyphenyl)-1,3,4-oxadiazol-2-yl)methyl)-9-(quinoxalin-2-yl)-2,9-diazaspiro[5.5]undecan-1-one], which Ki (hOx2R) is on record?
A: 1180 nM

Q: What about the Ki (hOx1R) of the same molecule?
A: 3690 nM

Q: Which results are given for `Cc1noc(-c2ccccc2)c1CN1CCCC2(CCN(c3cnc4ccccc4n3)CC2)C1=O` [Example 32, 2-((3-methyl-5-phenylisoxazol-4-yl)methyl)-9-(quinoxalin-2-yl)-2,9-diazaspiro[5.5]undecan-1-one]?
A: Ki (hOx2R): 138 nM; Ki (hOx1R): 1280 nM

Q: With `Cc1cc(CN2CCCC3(CCN(c4cnc5ccccc5n4)CC3)C2=O)c2ccccc2n1` [Example 33, 2-((2-methylquinolin-4-yl)methyl)-9-(quinoxalin-2-yl)-2,9-diazaspiro[5.5]undecan-1-one] as the molecule, how does the Ki (hOx2R) read?
A: 282 nM

Q: And the Ki (hOx1R)?
A: 2360 nM

Q: Which results are given for `O=C1N(Cc2cccc(-n3cccc3)c2)CCCC12CCN(c1cnc3ccccc3n1)CC2` [Example 35, 2-(3-(1H-pyrrol-1-yl)benzyl)-9-(quinoxalin-2-yl)-2,9-diazaspiro[5.5]undecan-1-one]?
A: Ki (hOx2R): 272 nM; inhibition at 10 µM (hOx1R): 26%

Q: For `O=C1N(Cc2noc3ccccc23)CCCC12CCN(c1cnc3ccccc3n1)CC2` [Example 36, 2-(benzo[d]isoxazol-3-ylmethyl)-9-(quinoxalin-2-yl)-2,9-diazaspiro[5.5]undecan-1-one], which Ki (hOx2R) is on record?
A: 197 nM

Q: And the Ki (hOx1R)?
A: 591 nM

Q: For `Cc1noc(C)c1CN1CCCC2(CCN(c3cnc4ccccc4n3)CC2)C1=O` [Example 37, 2-((3,5-dimethylisoxazol-4-yl)methyl)-9-(quinoxalin-2-yl)-2,9-diazaspiro[5.5]undecan-1-one], which inhibition at 10 µM (hOx2R) is on record?
A: 22%

Q: And the inhibition at 10 µM (hOx1R)?
A: 8%

Q: `O=C1N(Cc2c[nH]c3ccccc23)CCCC12CCN(c1nc3ccccc3o1)CC2` [Example 40, 2-((1H-indol-3-yl)methyl)-9-(benzo[d]oxazol-2-yl)-2,9-diazaspiro[5.5]undecan-1-one] was tested. Which Ki (hOx2R) did it give?
A: 98 nM

Q: And the Ki (hOx1R)?
A: 1020 nM

Q: With `COc1cc(CN2CCCC3(CCN(c4cnc5ccccc5n4)CC3)C2=O)ccn1` [Example 45, 2-((2-methoxypyridin-4-yl)methyl)-9-(quinoxalin-2-yl)-2,9-diazaspiro[5.5]undecan-1-one] as the molecule, how does the inhibition at 10 µM (hOx2R) read?
A: 43%

Q: What about the inhibition at 10 µM (hOx1R) of the same molecule?
A: 19%

Q: What does the source list for `Cn1cc(-c2ccccc2CN2CCCC3(CCN(c4cnc5ccccc5n4)CC3)C2=O)cn1` [Example 51, 2-(2-(1-methyl-1H-pyrazol-4-yl)benzyl)-9-(quinoxalin-2-yl)-2,9-diazaspiro[5.5]undecan-1-one]?
A: inhibition at 10 µM (hOx2R): 32%; inhibition at 10 µM (hOx1R): 57%

Q: With `O=C1N(Cc2c[nH]c3ccccc23)CCCC12CCN(c1nc3ccccc3s1)CC2` [Example 52, 2-((1H-indol-3-yl)methyl)-9-(benzo[d]thiazol-2-yl)-2,9-diazaspiro[5.5]undecan-1-one] as the molecule, how does the Ki (hOx2R) read?
A: 178 nM

Q: And the Ki (hOx1R)?
A: 1360 nM

Q: For `O=C1N(Cc2ccc3nonc3c2)CCCC12CCN(c1cnc3ccccc3n1)CC2` [Example 53, 2-(benzo[c][1,2,5]oxadiazol-5-ylmethyl)-9-(quinoxalin-2-yl)-2,9-diazaspiro[5.5]undecan-1-one], which inhibition at 10 µM (hOx2R) is on record?
A: 24%

Q: And the inhibition at 10 µM (hOx1R)?
A: 37%

Q: With `O=C1N(Cc2cccc3cnccc23)CCCC12CCN(c1cnc3ccccc3n1)CC2` [Example 55, 2-(isoquinolin-5-ylmethyl)-9-(quinoxalin-2-yl)-2,9-diazaspiro[5.5]undecan-1-one] as the molecule, how does the Ki (hOx2R) read?
A: 151 nM

Q: And the Ki (hOx1R)?
A: 932 nM

Q: For `O=C1N(Cc2ccnc(N3CCOCC3)c2)CCCC12CCN(c1cnc3ccccc3n1)CC2` [Example 56, 2-((2-morpholinopyridin-4-yl)methyl)-9-(quinoxalin-2-yl)-2,9-diazaspiro[5.5]undecan-1-one], which Ki (hOx2R) is on record?
A: 483 nM

Q: What about the Ki (hOx1R) of the same molecule?
A: 2040 nM

Q: Which Ki (hOx2R) does the source give for `O=C1N(Cc2cccc(-c3ccncc3)c2)CCCC12CCN(c1cnc3ccccc3n1)CC2` [Example 58, 2-(3-(pyridin-4-yl)benzyl)-9-(quinoxalin-2-yl)-2,9-diazaspiro[5.5]undecan-1-one] here?
A: 217 nM

Q: What about the Ki (hOx1R) of the same molecule?
A: 570 nM

Q: Which inhibition at 10 µM (hOx2R) does the source give for `O=C1N(Cc2cccc(N3CCOCC3)c2)CCCC12CCN(c1cnc3ccccc3n1)CC2` [Example 59, 2-(3-morpholinobenzyl)-9-(quinoxalin-2-yl)-2,9-diazaspiro[5.5]undecan-1-one] here?
A: 31%

Q: What about the inhibition at 10 µM (hOx1R) of the same molecule?
A: 12%

Q: For `O=C1N(Cc2ccccn2)CCCC12CCN(c1cnc3ccccc3n1)CC2` [Example 62, 2-(pyridin-2-ylmethyl)-9-(quinoxalin-2-yl)-2,9-diazaspiro[5.5]undecan-1-one], which Ki (hOx2R) is on record?
A: 833 nM

Q: What about the inhibition at 10 µM (hOx1R) of the same molecule?
A: 29%

Q: With `O=C1N(Cc2cccnc2)CCCC12CCN(c1cnc3ccccc3n1)CC2` [Example 64, 2-(pyridin-3-ylmethyl)-9-(quinoxalin-2-yl)-2,9-diazaspiro[5.5]undecan-1-one] as the molecule, how does the Ki (hOx2R) read?
A: 718 nM

Q: And the inhibition at 10 µM (hOx1R)?
A: 32%

Q: For `O=C1N(Cn2nnc3ccccc32)CCCC12CCN(c1cnc3ccccc3n1)CC2` [Example 66, 2-((1H-benzo[d][1,2,3]triazol-1-yl)methyl)-9-(quinoxalin-2-yl)-2,9-diazaspiro[5.5]undecan-1-one], which Ki (hOx2R) is on record?
A: 302 nM

Q: And the Ki (hOx1R)?
A: 1710 nM

Q: What does the source list for `O=C1N(Cc2ccncc2)CCCC12CCN(c1cnc3ccccc3n1)CC2` [Example 67, 2-(pyridin-4-ylmethyl)-9-(quinoxalin-2-yl)-2,9-diazaspiro[5.5]undecan-1-one]?
A: inhibition at 10 µM (hOx2R): 27%; inhibition at 10 µM (hOx1R): 11%

Q: Which Ki (hOx2R) does the source give for `Cc1cc(CN2CCCC3(CCN(c4cnc5ccccc5n4)CC3)C2=O)ccn1` [Example 68, 2-((2-methylpyridin-4-yl)methyl)-9-(quinoxalin-2-yl)-2,9-diazaspiro[5.5]undecan-1-one] here?
A: 830 nM

Q: What about the inhibition at 10 µM (hOx1R) of the same molecule?
A: 29%

Q: Which Ki (hOx2R) does the source give for `Cc1cccc(-c2sc(C)nc2CN2CCCC3(CCN(c4cnc5ccccc5n4)CC3)C2=O)c1` [Example 69, 2-((2-methyl-5-m-tolylthiazol-4-yl)methyl)-9-(quinoxalin-2-yl)-2,9-diazaspiro[5.5]undecan-1-one] here?
A: 163 nM

Q: And the Ki (hOx1R)?
A: 1110 nM

Q: How did the Ki (hOx2R) turn out when `O=C1N(Cc2cnc3ccccn23)CCCC12CCN(c1cnc3ccccc3n1)CC2` [Example 70, 2-(imidazo[1,2-a]pyridin-3-ylmethyl)-9-(quinoxalin-2-yl)-2,9-diazaspiro[5.5]undecan-1-one] was run?
A: 258 nM

Q: What about the Ki (hOx1R) of the same molecule?
A: 3420 nM

Q: With `Cc1nc2ccccn2c1CN1CCCC2(CCN(c3cnc4ccccc4n3)CC2)C1=O` [Example 71, 2-((2-methylimidazo[1,2-a]pyridin-3-yl)methyl)-9-(quinoxalin-2-yl)-2,9-diazaspiro[5.5]undecan-1-one] as the molecule, how does the Ki (hOx2R) read?
A: 466 nM

Q: And the Ki (hOx1R)?
A: 2160 nM

Q: Which Ki (hOx2R) does the source give for `CN1CCc2c(CN3CCCC4(CCN(c5cnc6ccccc6n5)CC4)C3=O)cccc21` [Example 145, 2-((1-methylindolin-4-yl)methyl)-9-(quinoxalin-2-yl)-2,9-diazaspiro[5.5]undecan-1-one] here?
A: 636 nM
